Earlier results in patent US20090196940A1, “COMPOSITIONS AND METHODS FOR SUPPORTING HEAT SHOCK FUNCTION” (priority 2007, published 2009).

Assays:
[1] = test system: heat shock proteins / HSF1; conditions: in vitro, treated cells
HSP70 = conditions: mice, administration of schisandrin B
[2] = test system: cultured mouse skeletal cells (HSP72)

## C[C@@]12C[C@@]3(O)O[C@@H](O1)[C@]1(COC(=O)c4ccccc4)[C@H]3C[C@@]12O[C@@H]1O[C@H](CO)[C@@H](O)[C@H](O)[C@H]1O [paeoniflorin, Paeoniflorin]
[1]
  levels of expression of heat shock proteins: enhanced levels of expression of heat shock proteins
  phosphorylation of HSF1: resulted in phosphorylation of HSF1

## COc1cc2c(c(OC)c1OC)-c1c(cc3c(c1OC)OCO3)CC(C)C(C)C2 (stereo not drawn) [schisandrin B, Schisandrin B]
HSP70
  production of HSP70: increase the production of HSP70

## Geranylgeranylacetone
[2]
  differentiation of myoblasts into myotubules: facilitate the differentiation of myoblasts into myotubules
  expression of HSP72: up-regulated the expression of HSP72
  muscular protein content: increased muscular protein content in a dose-dependent manner
